Assay results from patent US11427549B2, “Pyrimidinyloxy benzo-fused compounds as herbicides” (FMC Corporation, priority 2017, dated 2022).

What was measured:
[1] = test system: barnyardgrass (Echinochloa crus-galli); experiment: Test A preemergence, barnyardgrass; format: in vivo; settings: Echinochloa crus-galli, pre-emergence, 240 h, 0 to 100 scale (0 no effect, 100 complete control), read-out: Plant response rating, Barnyardgrass; for pest or weed control at 31 g/ha: 31 g ai/ha; for pest or weed control at 125 g/ha: 125 g ai/ha
Text: (§1) Seeds of plant species selected from barnyardgrass (Echinochloa crus-galli), kochia (Kochia scoparia), ragweed (common ragweed, Ambrosia elatior), ryegrass, Italian (Italian ryegrass, Lolium multiflorum), foxtail, giant (giant foxtail, Setaria faberii), foxtail, green (green foxtail, Setaria viridis) and pigweed (Amaranthus retroflexus) were planted into a blend of loam soil and sand and treated preemergence with a directed soil spray using test chemicals formulated in a non-phytotoxic solvent mixture which included a surfactant.
(§2) At the same time, plants selected from these weed species and also wheat (Triticum aestivum), corn (Zea mays), blackgrass (Alopecurus myosuroides), and galium (catchweed bedstraw, Galium aparine) were planted in pots containing the same blend of loam soil and sand and treated with postemergence applications of test chemicals formulated in the same manner. Plants ranged in height from 2 to 10 cm and were in the one- to two-leaf stage for the postemergence treatment. Treated plants and untreated controls were maintained in a greenhouse for approximately 10 days, after which time all treated plants were compared to untreated controls and visually evaluated for injury. […] A dash (-) response means no test result.

kochia (Kochia scoparia) [2] = experiment: Test A preemergence, kochia; format: in vivo; settings: Bassia scoparia, pre-emergence, 240 h, 0 to 100 scale (0 no effect, 100 complete control), read-out: Plant response rating, Kochia; for pest or weed control at 31 g/ha: 31 g ai/ha; for pest or weed control at 125 g/ha: 125 g ai/ha
Text: as §1, §2

[3] = test system: ragweed (common ragweed, Ambrosia elatior); experiment: Test A preemergence, ragweed; format: in vivo; settings: Ambrosia artemisiifolia, pre-emergence, 240 h, 0 to 100 scale (0 no effect, 100 complete control), read-out: Plant response rating, Ragweed; for pest or weed control at 31 g/ha: 31 g ai/ha; for pest or weed control at 125 g/ha: 125 g ai/ha
Text: as §1, §2

[4] = test system: ryegrass, Italian (Italian ryegrass, Lolium multiflorum); experiment: Test A preemergence, ryegrass, Italian; format: in vivo; settings: Lolium multiflorum, pre-emergence, 240 h, 0 to 100 scale (0 no effect, 100 complete control), read-out: Plant response rating, Ryegrass, Italian; for pest or weed control at 31 g/ha: 31 g ai/ha; for pest or weed control at 125 g/ha: 125 g ai/ha
Text: as §1, §2

[5] = test system: pigweed (Amaranthus retroflexus); experiment: Test A preemergence, pigweed; format: in vivo; settings: Amaranthus retroflexus, pre-emergence, 240 h, 0 to 100 scale (0 no effect, 100 complete control), read-out: Plant response rating, Pigweed; for pest or weed control at 31 g/ha: 31 g ai/ha; for pest or weed control at 125 g/ha: 125 g ai/ha
Text: as §1, §2

[6] = test system: barnyardgrass (Echinochloa crus-galli); experiment: Test A postemergence, barnyardgrass; format: in vivo; settings: Echinochloa crus-galli, post-emergence, 240 h, 0 to 100 scale (0 no effect, 100 complete control), read-out: Plant response rating, Barnyardgrass; for pest or weed control at 31 g/ha: 31 g ai/ha; for pest or weed control at 125 g/ha: 125 g ai/ha
Text: as §1, §2

kochia (Kochia scoparia) [7] = experiment: Test A postemergence, kochia; format: in vivo; settings: Bassia scoparia, post-emergence, 240 h, 0 to 100 scale (0 no effect, 100 complete control), read-out: Plant response rating, Kochia; for pest or weed control at 31 g/ha: 31 g ai/ha; for pest or weed control at 125 g/ha: 125 g ai/ha
Text: as §1, §2

[8] = test system: ragweed (common ragweed, Ambrosia elatior); experiment: Test A postemergence, ragweed; format: in vivo; settings: Ambrosia artemisiifolia, post-emergence, 240 h, 0 to 100 scale (0 no effect, 100 complete control), read-out: Plant response rating, Ragweed; for pest or weed control at 31 g/ha: 31 g ai/ha; for pest or weed control at 125 g/ha: 125 g ai/ha
Text: as §1, §2

[9] = test system: ryegrass, Italian (Italian ryegrass, Lolium multiflorum); experiment: Test A postemergence, ryegrass, Italian; format: in vivo; settings: Lolium multiflorum, post-emergence, 240 h, 0 to 100 scale (0 no effect, 100 complete control), read-out: Plant response rating, Ryegrass, Italian; for pest or weed control at 31 g/ha: 31 g ai/ha; for pest or weed control at 125 g/ha: 125 g ai/ha
Text: as §1, §2

[10] = test system: pigweed (Amaranthus retroflexus); experiment: Test A postemergence, pigweed; format: in vivo; settings: Amaranthus retroflexus, post-emergence, 240 h, 0 to 100 scale (0 no effect, 100 complete control), read-out: Plant response rating, Pigweed; for pest or weed control at 31 g/ha: 31 g ai/ha; for pest or weed control at 125 g/ha: 125 g ai/ha
Text: as §1, §2

[11] = test system: wheat (Triticum aestivum); experiment: Test A postemergence, wheat; format: in vivo; settings: Triticum aestivum, post-emergence, 240 h, 0 to 100 scale (0 no effect, 100 complete control), read-out: Plant response rating, Wheat; for plant injury at 31 g/ha: 31 g ai/ha; for plant injury at 125 g/ha: 125 g ai/ha
Text: as §1, §2

corn (Zea mays) = experiment: Test A postemergence, corn; format: in vivo; settings: Zea mays, post-emergence, 240 h, 0 to 100 scale (0 no effect, 100 complete control); for Corn plant response rating (crop injury, 0 = no effect, 100 = complete kill) at 31 g/ha: 31 g ai/ha; for Corn plant response rating (crop injury, 0 = no effect, 100 = complete kill) at 125 g/ha: 125 g ai/ha
Text: as §1, §2

[12] = test system: blackgrass (Alopecurus myosuroides); experiment: Test A postemergence, blackgrass; format: in vivo; settings: Alopecurus myosuroides, post-emergence, 240 h, 0 to 100 scale (0 no effect, 100 complete control), read-out: Plant response rating, Blackgrass; for pest or weed control at 31 g/ha: 31 g ai/ha; for pest or weed control at 125 g/ha: 125 g ai/ha
Text: as §1, §2

[13] = test system: galium (catchweed bedstraw, Galium aparine); experiment: Test A postemergence, galium; format: in vivo; settings: Galium, post-emergence, 240 h, 0 to 100 scale (0 no effect, 100 complete control), read-out: Plant response rating, Galium; for pest or weed control at 31 g/ha: 31 g ai/ha; for pest or weed control at 125 g/ha: 125 g ai/ha
Text: as §1, §2

rice (Oryza sativa) = experiment: Test B flooded paddy test, rice; settings: Oryza sativa, read-out: Plant response rating, Rice (0 to 100 scale, 0 is no effect, 100 is complete control)
[14] = test system: ducksalad (Heteranthera limosa); experiment: Test B flooded paddy test, ducksalad; settings: Heteranthera limosa, read-out: Plant response rating, Ducksalad (0 to 100 scale, 0 is no effect, 100 is complete control)
[15] = test system: barnyardgrass (Echinochloa crus-galli); experiment: Test B flooded paddy test, barnyardgrass; settings: Echinochloa crus-galli, read-out: Plant response rating, Barnyardgrass (0 to 100 scale, 0 is no effect, 100 is complete control)

SMILES	pest or weed control at 31 g/ha [1] [%]	pest or weed control at 125 g/ha [1] [%]	pest or weed control at 31 g/ha (kochia (Kochia scoparia) [2]) [%]	pest or weed control at 125 g/ha (kochia (Kochia scoparia) [2]) [%]	pest or weed control at 31 g/ha [3] [%]	pest or weed control at 125 g/ha [3] [%]	pest or weed control at 31 g/ha [4] [%]	pest or weed control at 125 g/ha [4] [%]	pest or weed control at 31 g/ha [5] [%]	pest or weed control at 125 g/ha [5] [%]	pest or weed control at 31 g/ha [6] [%]	pest or weed control at 125 g/ha [6] [%]	pest or weed control at 31 g/ha (kochia (Kochia scoparia) [7]) [%]	pest or weed control at 125 g/ha (kochia (Kochia scoparia) [7]) [%]	pest or weed control at 31 g/ha [8] [%]	pest or weed control at 125 g/ha [8] [%]	pest or weed control at 31 g/ha [9] [%]	pest or weed control at 125 g/ha [9] [%]	pest or weed control at 31 g/ha [10] [%]	pest or weed control at 125 g/ha [10] [%]	further results
O=C1Cc2cccc(Oc3ncc(Cl)cn3)c2C(CCCC(F)(F)F)O1 (centres unmarked) [Compound 17, 8-[(5-Chloro-2-pyrimidinyl)oxy]-1,4-dihydro-1-(4,4,4-trifluorobutyl)-3H-2-benzopyran-3-one]	10	50	0	60	0	0	0	10	60	100	10	70	30	70	10	10	0	10	50	70	plant injury at 31 g/ha [11]: 0%; plant injury at 125 g/ha [11]: 10%; Corn plant response rating (crop injury, 0 = no effect, 100 = complete kill) at 31 g/ha (corn (Zea mays)): 20%; Corn plant response rating (crop injury, 0 = no effect, 100 = complete kill) at 125 g/ha (corn (Zea mays)): 20%; pest or weed control at 31 g/ha [12]: 20%; pest or weed control at 125 g/ha [12]: 50%; pest or weed control at 31 g/ha [13]: 40%; pest or weed control at 125 g/ha [13]: 90%; plant injury at 250 g/ha (rice (Oryza sativa)): 0%; pest or weed control at 250 g/ha [14]: 0%; pest or weed control at 250 g/ha [15]: 0%
O=C1O[C@@H](CCC(F)(F)F)c2c(Oc3ncc(Cl)cn3)cccc21 [Compound 18, (3S)-4-[(5-Chloro-2-pyrimidinyl)oxy]-3-(3,3,3-trifluoropropyl)-1(3H)-isobenzofuranone]	0	0	0	0	0	0	0	0	0	0	0	0	0	10	0	0	0	0	10	20	plant injury at 31 g/ha [11]: 0%; plant injury at 125 g/ha [11]: 0%; Corn plant response rating (crop injury, 0 = no effect, 100 = complete kill) at 31 g/ha (corn (Zea mays)): 0%; Corn plant response rating (crop injury, 0 = no effect, 100 = complete kill) at 125 g/ha (corn (Zea mays)): 10%; pest or weed control at 31 g/ha [12]: 0%; pest or weed control at 125 g/ha [12]: 0%; pest or weed control at 31 g/ha [13]: 0%; pest or weed control at 125 g/ha [13]: 10%; plant injury at 250 g/ha (rice (Oryza sativa)): 0%; pest or weed control at 250 g/ha [14]: 0%; pest or weed control at 250 g/ha [15]: 0%
